Assay results reported in patent US5691373A, “Nonpeptide endothelin antagonists I” (Warner-Lambert Company, priority 1995, dated 1997).
Structures can show the parent of a compound that is named as a salt.

Tests used:
[1] = target: T1, human ETB receptor (Homo sapiens, UniProt P24530); assay: ERBA-B: [125I]-ET-1 binding, recombinant human ETB receptor expressed in CHO-K1 cells; conditions: human cloned ETB receptor, read-out: ERBA-B IC50, human cloned receptor data
T1 construct: expressed in transfected cells; host or cells: CHO-K1 cells, pRc-CMW (so in the source) expression vector, electroporation; membranes used
T1 sequence (P24530 27-442): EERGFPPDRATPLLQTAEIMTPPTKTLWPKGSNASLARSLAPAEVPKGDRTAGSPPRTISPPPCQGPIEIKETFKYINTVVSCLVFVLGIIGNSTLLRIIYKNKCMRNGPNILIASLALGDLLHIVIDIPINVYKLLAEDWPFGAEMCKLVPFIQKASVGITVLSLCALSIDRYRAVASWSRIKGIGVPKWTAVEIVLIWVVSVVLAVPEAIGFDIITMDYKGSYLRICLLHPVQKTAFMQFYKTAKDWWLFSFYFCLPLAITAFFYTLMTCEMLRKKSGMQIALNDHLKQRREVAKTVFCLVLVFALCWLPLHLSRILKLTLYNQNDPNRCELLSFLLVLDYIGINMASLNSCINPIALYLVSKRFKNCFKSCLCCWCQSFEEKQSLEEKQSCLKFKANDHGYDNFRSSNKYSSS

[2] = target: T2, ETA (Oryctolagus cuniculus, UniProt A5A8K3); assay: VERA-A: antagonism of ET-1 stimulated vasoconstriction in the rabbit femoral artery (ETA); format: cell-based; conditions: ET-1, rabbit femoral artery; read-out: VERA-A pA2 (converted)
T2 sequence (A5A8K3 21-427): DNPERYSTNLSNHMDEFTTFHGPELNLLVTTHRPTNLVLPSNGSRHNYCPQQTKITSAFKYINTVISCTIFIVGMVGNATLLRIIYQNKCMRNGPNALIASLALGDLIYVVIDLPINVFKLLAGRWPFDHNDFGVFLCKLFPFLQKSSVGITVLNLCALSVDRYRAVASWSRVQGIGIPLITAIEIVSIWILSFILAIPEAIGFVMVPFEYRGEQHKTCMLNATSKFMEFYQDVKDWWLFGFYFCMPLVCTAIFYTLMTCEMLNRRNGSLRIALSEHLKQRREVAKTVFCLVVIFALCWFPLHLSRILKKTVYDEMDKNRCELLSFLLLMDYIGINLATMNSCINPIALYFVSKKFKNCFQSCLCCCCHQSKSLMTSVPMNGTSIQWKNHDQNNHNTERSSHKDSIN
Procedure: Male New Zealand rabbits were killed by cervical dislocation and exsanguination. Femoral and pulmonary arteries were isolated, cleaned of connective tissue, and cut into 4-mm rings. The endothelium was denuded by placing the rings over hypodermic tubing (32 gauge for femoral rings and 28 gauge for pulmonary rings, Small Parts, Inc, Miami, Fla.) and gently rolling them. […] Resting tension was adjusted to 3.0 g for femoral and 4.0 g pulmonary arteries; the rings were left for 90 minutes to equilibrate.

[3] = target: T2, ETA; conditions: ERBA-A IC50, [125I]-ET-1, rabbit renal artery vascular smooth muscle cells

Question: Which results are given for COc1ccc(C2(O)OC(=O)C(c3cc(OC)c4c(c3)OCO4)=C2Cc2ccccc2)cc1 (stereo not drawn) [Example 301, 4-Benzyl-5-hydroxy-3-(7-methoxy-benzo[1,3]dioxol-5-yl)-5(4-methoxy-phenyl)-5H-furan-2-one]?
Answer: IC50 [1]: 660 nM; Kb [2]: 100 nM; IC50 [3]: 5.6 nM

Question: Which IC50 [1] does the source give for COc1ccc(C2(O)OC(=O)C(c3ccc4c(c3)OCO4)=C2Cc2ccc(S(C)(=O)=O)cc2)cc1 (stereo not drawn) [Example 237, 3-Benzo[1,3]dioxol-5-yl-5-hydroxy-4-(4-methanesulfonylbenzyl)-5-(4-methoxyphenyl)-5H-furan-2-one] here?
Answer: > 2500 nM

Question: And the Kb [2]?
Answer: 631 nM

Question: What about the IC50 [3] of the same compound?
Answer: 11 nM

Question: Which results are given for COC(=O)c1cccc(C/C(C(=O)c2ccc(OC)cc2)=C(/C(=O)O)c2ccc3c(c2)OCO3)c1 [Example 405, 1,3-Benzodioxol-5-acetic acid, α-[1-[[3-(methoxycarbonyl)phenyl]methyl]-2-(4-methoxyphenyl)-2-oxoethylene]-, monopotassium salt]?
Answer: IC50 [1]: 2700 nM; Kb [2]: 251 nM; IC50 [3]: 7.4 nM

Question: What does the source list for COc1cc(OC)cc(/C(C(=O)O)=C(\Cc2ccc(NC(C)=O)cc2)C(=O)c2ccc(OC)c(C)c2)c1 [Example 386, Potassium 3-(4-Acetylamino-benzyl)-2-(3,5-dimethoxyphenyl)-4-(4-methoxy-3-methyl-phenyl)-4-oxo-but-2-enoate]?
Answer: IC50 [1]: 2100 nM; Kb [2]: 126 nM; IC50 [3]: 5 nM

Question: For CCCCOc1ccc(CC2=C(c3ccc4c(c3)OCO4)C(=O)OC2(O)c2ccc(OC)cc2)cc1 (stereo not drawn) [Example 93, 3-Benzo[1,3]dioxol-5-yl-4-(4-butoxybenzyl)-5-hydroxy-5-(4-methoxyphenyl)-5H -furan-2-one], which IC50 [1] is on record?
Answer: 220 nM

Question: And the Kb [2]?
Answer: 1000 nM

Question: And the IC50 [3]?
Answer: 5.2 nM

Question: How did the IC50 [1] turn out when COc1ccc(C2(O)OC(=O)C(c3ccc4c(c3)OCO4)=C2Cc2ccc(OC(C)C)cc2)cc1 (stereo not drawn) [Example 84, 3-Benzo[1,3]dioxol-5-yl-5-hydroxy-4-(isopropoxybenzyl)-5-(4-methoxyphenyl)-5H-furan-2-one] was run?
Answer: 1400 nM

Question: And the Kb [2]?
Answer: 158 nM

Question: And the IC50 [3]?
Answer: 3.3 nM

Question: Which results are given for C=CCOc1cc(CC2=C(c3ccc4c(c3)OCO4)C(=O)OC2(O)c2ccc(OC)cc2)ccc1OC (stereo not drawn) [Example 163, 4-(3-Allyloxy-4-methoxybenzyl)-3-benzo[1,3]dioxol-5-yl-5-hydroxy-5-(4-methoxyphenyl)-5H-furan-2-one]?
Answer: IC50 [1]: 880 nM; Kb [2]: 126 nM; IC50 [3]: 20 nM

Question: With COc1ccc(C(=O)/C(Cc2ccc(OC(C)C)cc2)=C(\C(=O)O)c2ccc3c(c2)OCO3)cc1 [Example 352, 1,3-Benzodioxol-5-acetic acid, α-[2-(4-methoxyphenyl)-1-[[4-(1-methylethoxy)phenyl]methyl]-2-oxoethylene]-, (Z)-, choline salt] as the compound, how does the IC50 [1] read?
Answer: 1250 nM

Question: What about the Kb [2] of the same compound?
Answer: 63.1 nM

Question: What about the IC50 [3] of the same compound?
Answer: 5 nM

Question: What does the source list for COc1ccc(CC2=C(c3cc(OC)cc(OC)c3)C(=O)OC2(O)c2ccc(OC)cc2)cc1 (stereo not drawn) [Example 131, 3-(3,5-Dimethoxyphenyl)-5-hydroxy-4-(4-methoxybenzyl)-5-(4-methoxyphenyl)-5H-furan-2-one]?
Answer: IC50 [1]: 1350 nM; Kb [2]: 501 nM; IC50 [3]: 15 nM

Question: COc1ccc(C2(O)OC(=O)C(c3ccc4c(c3)OCO4)=C2Cc2ccc(OC)c(C)c2C)cc1 (stereo not drawn) [Example 254, 3-Benzo[1,3]dioxol-5-yl-5-hydroxy-4-(4-methoxy-2,3-dimethylbenzyl)-5-(4-methoxyphenyl)-5H-furan-2-one] was tested. Which IC50 [1] did it give?
Answer: 2900 nM

Question: And the Kb [2]?
Answer: 200 nM

Question: And the IC50 [3]?
Answer: 17 nM
